Experimental data from US20200079773A1, “CARBOXYLIC ACID DERIVATIVES OF PYRIDOQUINAZOLINES USEFUL AS PROTEIN KINASE INHIBITORS” (ONCOSTELLAE, S.L., priority 2017, published 2020).

Key:
JAK3 = target: T1, JAK3 (Homo sapiens, UniProt P52333); assay: Functional assay of protein kinases (Caliper mobility shift), JAK3; format: biochemical; conditions: ATP 8 μM, 30 min incubation
T1 construct: purchased Carna Biosciences 08-046
Description: (§1) Functional Assays of Protein Kinases
(§2) The functional assays of protein kinases were carried out in 384-well plates using a final volume of 30 μl. […] The reaction was reads in a “Caliper EzReader LabChip 3000” (Caliper, Hopkinton, Mass.) reader, based on electrophoretic mobility of the fluorescent substrate and the phosphorylated product.
(§3) The inhibition percentages were calculated by comparison between control reactions, for 100% of inhibition and reactions with only DMSO for 0% of inhibition.

TYK2 = target: T2, TYK2 (Homo sapiens, UniProt P29597); assay: Functional assay of protein kinases (Caliper mobility shift), TYK2; format: biochemical; conditions: ATP 20 μM, 45 min incubation
T2 construct: purchased Carna Biosciences 08-147
T2 sequence (P29597 871-1187 limits assumed): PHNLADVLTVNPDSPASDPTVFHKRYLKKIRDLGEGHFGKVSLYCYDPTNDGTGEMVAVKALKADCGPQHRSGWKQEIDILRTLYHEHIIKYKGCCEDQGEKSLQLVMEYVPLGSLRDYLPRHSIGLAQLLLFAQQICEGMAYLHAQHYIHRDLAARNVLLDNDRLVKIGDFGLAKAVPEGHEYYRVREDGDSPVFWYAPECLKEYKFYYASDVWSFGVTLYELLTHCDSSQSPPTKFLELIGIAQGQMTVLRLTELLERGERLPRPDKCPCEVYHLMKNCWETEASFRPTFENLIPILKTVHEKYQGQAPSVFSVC
Description: as §1, §2, §3

T1 sequence (P52333 795-1124 limits assumed): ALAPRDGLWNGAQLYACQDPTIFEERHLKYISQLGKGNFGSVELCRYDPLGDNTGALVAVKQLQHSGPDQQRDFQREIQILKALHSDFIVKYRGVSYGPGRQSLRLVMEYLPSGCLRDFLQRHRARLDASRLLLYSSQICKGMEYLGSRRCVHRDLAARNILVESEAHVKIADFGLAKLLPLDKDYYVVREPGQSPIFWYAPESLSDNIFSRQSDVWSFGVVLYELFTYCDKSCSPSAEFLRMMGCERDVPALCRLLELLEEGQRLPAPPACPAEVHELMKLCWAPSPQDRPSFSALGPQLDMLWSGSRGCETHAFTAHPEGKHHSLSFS

| SMILES | IC50 (JAK3) | IC50 (TYK2) |
| --- | --- | --- |
| O=C(NC1CCC(C(=O)O)CC1)c1cccn2c(=O)c3cc(O)ccc3nc12 (stereo not drawn) [Example 19, 4-(2-hydroxy-11-oxo-11H-pyrido[2,1-b]quinazoline-6-carboxamido)cyclohexane-1-carboxylic acid] | 0.1 to 1 µM | 0.1 to 1 µM |
| O=C(N[C@H]1CC[C@@H](C(=O)O)CC1)c1cccn2c(=O)c3cc(-c4cccnc4)ccc3nc12 [Example 34, (cis)-4-(11-oxo-2-(pyridin-3-yl)-11H-pyrido[2,1-b]quinazoline-6-carboxamido)cyclohexane-1-carboxylic acid] | < 0.1 µM | < 0.1 µM |
| O=C(N[C@H]1CC[C@H](C(=O)O)CC1)c1cccn2c(=O)c3cc(-c4ccncc4)ccc3nc12 [Example 35, (trans)-4-(11-oxo-2-(pyridin-4-yl)-11H-pyrido[2,1-b]quinazoline-6-carboxamido)cyclohexane-1-carboxylic acid] | 0.1 to 1 µM | ≥ 1 µM |
| O=C(N[C@H]1CC[C@@H](C(=O)O)CC1)c1cccn2c(=O)c3cc(-c4ccncc4F)ccc3nc12 [Example 36, (cis)-4-(2-(3-fluoropyridin-4-yl)-11-oxo-11H-pyrido[2,1-b]quinazoline-6-carboxamido)cyclohexane-1-carboxylic acid] | < 0.1 µM | 0.1 to 1 µM |
| O=C(N[C@H]1CC[C@@H](C(=O)O)CC1)c1cccn2c(=O)c3cc(-c4cncnc4)ccc3nc12 [Example 37, (cis)-4-(11-oxo-2-(pyrimidin-5-yl)-11H-pyrido[2,1-b]quinazoline-6-carboxamido)cyclohexane-1-carboxylic acid] | < 0.1 µM | 0.1 to 1 µM |
| Cn1cc(-c2ccc3nc4c(C(=O)N[C@H]5CC[C@@H](C(=O)O)CC5)cccn4c(=O)c3c2)cn1 [Example 38, (cis)-4-(2-(1-methyl-1H-pyrazol-4-yl)-11-oxo-11H-pyrido[2,1-b]quinazoline-6-carboxamido)cyclohexane-1-carboxylic acid] | < 0.1 µM | < 0.1 µM |

Further lines, results first:

| IC50 (JAK3) | IC50 (TYK2) | SMILES |
| --- | --- | --- |
| < 0.1 µM | < 0.1 µM | Cc1ccc(-c2ccc3nc4c(C(=O)N[C@H]5CC[C@@H](C(=O)O)CC5)cccn4c(=O)c3c2)s1 [Example 2, (1S,4S)-4-(2-(5-methylthiophen-2-yl)-11-oxo-11H-pyrido[2,1-b]quinazoline-6 carboxamido)cyclohexane-1-carboxylic acid] |
| < 0.1 µM | < 0.1 µM | O=C(N[C@H]1CC[C@@H](C(=O)O)CC1)c1cccn2c(=O)c3cc(-c4cccc(F)c4)ccc3nc12 [Example 29, (cis)-4-(2-(3-fluorophenyl)-11-oxo-11H-pyrido[2,1-b]quinazoline-6-carboxamido)cyclohexane-1-carboxylic acid] |
| < 0.1 µM | < 0.1 µM | O=C(N[C@H]1CC[C@@H](C(=O)O)CC1)c1cccn2c(=O)c3cc(-c4ccc(F)c(F)c4)ccc3nc12 [Example 30, (cis)-4-(2-(3,4-difluorophenyl)-11-oxo-11H-pyrido[2,1-b]quinazoline-6-carboxamido)cyclohexane-1-carboxylic acid] |
| < 0.1 µM | < 0.1 µM | N#Cc1ccc(-c2ccc3nc4c(C(=O)N[C@H]5CC[C@@H](C(=O)O)CC5)cccn4c(=O)c3c2)cc1 [Example 31, (cis)-4-(2-(4-cyanophenyl)-11-oxo-11H-pyrido[2,1-b]quinazoline-6-carboxamido)cyclohexane-1-carboxylic acid] |
| < 0.1 µM | < 0.1 µM | N#Cc1cccc(-c2ccc3nc4c(C(=O)N[C@H]5CC[C@@H](C(=O)O)CC5)cccn4c(=O)c3c2)c1 [Example 32, (cis)-4-(2-(3-cyanophenyl)-11-oxo-11H-pyrido[2,1-b]quinazoline-6-carboxamido)cyclohexane-1-carboxylic acid] |
| < 0.1 µM | < 0.1 µM | O=C(O)c1ccc(-c2ccc3nc4c(C(=O)N[C@H]5CC[C@@H](C(=O)O)CC5)cccn4c(=O)c3c2)cc1 [Example 33, 4-(6-(((cis)-4-carboxycyclohexyl)carbamoyl)-11-oxo-11H-pyrido[2,1-b]quinazolin-2-yl)benzoic acid] |
